Common to all, as to assay: relative viability (nuclei count vs DMSO), 5 days (fraction); higher = more cells survive
Compound in the test “Omipalisib + Pemetrexed”: COc1ncc(-c2ccc3nccc(-c4ccnnc4)c3c2)cc1NS(=O)(=O)c1ccc(F)cc1F [Omipalisib] + Nc1nc2[nH]cc(CCc3ccc(C(=O)N[C@@H](CCC(=O)O)C(=O)O)cc3)c2c(=O)[nH]1 [Pemetrexed] (partner 0.2 µM)
Summed up: (§1)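 Relative viability equals treated-well nuclei counts divided by vehicle-well nuclei counts. Counts came from 4× images of lung cancer cell lines grown in 1536-well plates for 5 days after pin-tool dosing on the day after seeding. Dosing used one drug alone or a fixed anchor-drug dose plus five library-drug doses (not always all listed) in √10 steps, and values are medians of duplicate plates.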

Compound in the test “Omipalisib + Navitoclax”: COc1ncc(-c2ccc3nccc(-c4ccnnc4)c3c2)cc1NS(=O)(=O)c1ccc(F)cc1F [Omipalisib] + CC1(C)CCC(c2ccc(Cl)cc2)=C(CN2CCN(c3ccc(C(=O)NS(=O)(=O)c4ccc(N[C@H](CCN5CCOCC5)CSc5ccccc5)c(S(=O)(=O)C(F)(F)F)c4)cc3)CC2)C1 [Navitoclax] (partner 0.5 µM)
In a few lines: as §1

Compound in the test “Omipalisib + Tozasertib”: COc1ncc(-c2ccc3nccc(-c4ccnnc4)c3c2)cc1NS(=O)(=O)c1ccc(F)cc1F [Omipalisib] + Cc1cc(Nc2cc(N3CCN(C)CC3)nc(Sc3ccc(NC(=O)C4CC4)cc3)n2)n[nH]1 [Tozasertib] (partner 0.1 µM)
In a few lines: as §1

Compound in the test “Omipalisib + Crizotinib”: COc1ncc(-c2ccc3nccc(-c4ccnnc4)c3c2)cc1NS(=O)(=O)c1ccc(F)cc1F [Omipalisib] + C[C@@H](Oc1cc(-c2cnn(C3CCNCC3)c2)cnc1N)c1c(Cl)ccc(F)c1Cl [Crizotinib] (partner 1 µM)
In a few lines: as §1

Compound in the test “Omipalisib + AZD7762”: COc1ncc(-c2ccc3nccc(-c4ccnnc4)c3c2)cc1NS(=O)(=O)c1ccc(F)cc1F [Omipalisib] + NC(=O)Nc1cc(-c2cccc(F)c2)sc1C(=O)N[C@H]1CCCNC1 [AZD7762] (partner 0.2 µM)
In a few lines:
as §1

Compound in the test “Omipalisib + Olaparib”: COc1ncc(-c2ccc3nccc(-c4ccnnc4)c3c2)cc1NS(=O)(=O)c1ccc(F)cc1F [Omipalisib] + O=C(c1cc(Cc2n[nH]c(=O)c3ccccc23)ccc1F)N1CCN(C(=O)C2CC2)CC1 [Olaparib] (partner 8 µM)
Summed up:
as §1

With EKVX, the relative viability with Omipalisib + Pemetrexed (first compound 0.0003 µM) turned out to be 0.491; in the test with Omipalisib + Pemetrexed (first compound 0.003 µM), 0.437; with Omipalisib + Pemetrexed (first compound 0.03 µM) it was 0.264; with Omipalisib + Navitoclax (first compound 0.0003 µM), 0.979; with Omipalisib + Navitoclax (first compound 0.003 µM) it was 0.773; in the test with Omipalisib + Navitoclax (first compound 0.03 µM), 0.48. The relative viability came to 0.407 in the test with Omipalisib + Tozasertib (first compound 0.0003 µM); 0.246 with Omipalisib + Tozasertib (first compound 0.003 µM); 0.157 with Omipalisib + Tozasertib (first compound 0.03 µM); 0.934 with Omipalisib + Crizotinib (first compound 0.0003 µM); 0.824 in the test with Omipalisib + Crizotinib (first compound 0.003 µM); 0.402 with Omipalisib + Crizotinib (first compound 0.03 µM). Moreover, the relative viability with Omipalisib + AZD7762 (first compound 0.0003 µM) is 0.638; with Omipalisib + AZD7762 (first compound 0.003 µM), 0.723; in the test with Omipalisib + AZD7762 (first compound 0.03 µM), 0.285; with Omipalisib + Olaparib (first compound 0.0003 µM) it was 0.912; with Omipalisib + Olaparib (first compound 0.003 µM) it was 0.734; in the test with Omipalisib + Olaparib (first compound 0.03 µM), 0.39.
For NCI-H1437, the relative viability was 0.276 with Omipalisib + Pemetrexed (first compound 0.0003 µM); 0.298 in the test with Omipalisib + Pemetrexed (first compound 0.003 µM); 0.27 in the test with Omipalisib + Pemetrexed (first compound 0.03 µM); 1.03 with Omipalisib + Navitoclax (first compound 0.0003 µM); 0.974 with Omipalisib + Navitoclax (first compound 0.003 µM); 0.517 with Omipalisib + Navitoclax (first compound 0.03 µM). The relative viability was 0.422 in the test with Omipalisib + Tozasertib (first compound 0.0003 µM); 0.348 with Omipalisib + Tozasertib (first compound 0.003 µM); 0.244 with Omipalisib + Tozasertib (first compound 0.03 µM); 0.864 with Omipalisib + Crizotinib (first compound 0.0003 µM); 0.894 in the test with Omipalisib + Crizotinib (first compound 0.003 µM); 0.702 with Omipalisib + Crizotinib (first compound 0.03 µM). Further, the relative viability with Omipalisib + AZD7762 (first compound 0.0003 µM) turned out to be 1.17; with Omipalisib + AZD7762 (first compound 0.003 µM), 1; with Omipalisib + AZD7762 (first compound 0.03 µM), 0.395; with Omipalisib + Olaparib (first compound 0.0003 µM), 0.673; with Omipalisib + Olaparib (first compound 0.003 µM), 0.603; with Omipalisib + Olaparib (first compound 0.03 µM) it was 0.537.
On to RERF-LC-KJ, for which the relative viability in the test with Omipalisib + Pemetrexed (first compound 0.0003 µM) amounted to 0.47; in the test with Omipalisib + Pemetrexed (first compound 0.003 µM), 0.439; in the test with Omipalisib + Pemetrexed (first compound 0.03 µM), 0.414; with Omipalisib + Navitoclax (first compound 0.0003 µM) it was 0.79; with Omipalisib + Navitoclax (first compound 0.003 µM), 0.7; with Omipalisib + Navitoclax (first compound 0.03 µM), 0.627. The relative viability in the test with Omipalisib + Tozasertib (first compound 0.0003 µM) was determined as 0.463; with Omipalisib + Tozasertib (first compound 0.003 µM) it was 0.525; with Omipalisib + Tozasertib (first compound 0.03 µM) it was 0.382; in the test with Omipalisib + Crizotinib (first compound 0.0003 µM), 0.736; in the test with Omipalisib + Crizotinib (first compound 0.003 µM), 0.814; with Omipalisib + Crizotinib (first compound 0.03 µM) it was 0.679. Moreover, the relative viability with Omipalisib + AZD7762 (first compound 0.0003 µM) came out at 0.867; with Omipalisib + AZD7762 (first compound 0.003 µM), 0.554; with Omipalisib + AZD7762 (first compound 0.03 µM) it was 0.514; in the test with Omipalisib + Olaparib (first compound 0.0003 µM) it was 0.883; with Omipalisib + Olaparib (first compound 0.003 µM), 0.763; in the test with Omipalisib + Olaparib (first compound 0.03 µM) it was 0.562.
Take NCI-H1755: the relative viability with Omipalisib + Pemetrexed (first compound 0.0003 µM) came out at 0.504; with Omipalisib + Pemetrexed (first compound 0.003 µM) it was 0.393; with Omipalisib + Pemetrexed (first compound 0.03 µM) it was 0.402; with Omipalisib + Navitoclax (first compound 0.0003 µM) it was 1.01; in the test with Omipalisib + Navitoclax (first compound 0.003 µM) it was 0.848; with Omipalisib + Navitoclax (first compound 0.03 µM) it was 0.368. Further, the relative viability worked out at 0.62 in the test with Omipalisib + Tozasertib (first compound 0.0003 µM); 0.497 with Omipalisib + Tozasertib (first compound 0.003 µM); 0.42 with Omipalisib + Tozasertib (first compound 0.03 µM); 0.848 with Omipalisib + Crizotinib (first compound 0.0003 µM); 0.805 in the test with Omipalisib + Crizotinib (first compound 0.003 µM); 0.481 with Omipalisib + Crizotinib (first compound 0.03 µM). Further, the relative viability with Omipalisib + AZD7762 (first compound 0.0003 µM) was determined as 0.471; with Omipalisib + AZD7762 (first compound 0.003 µM), 0.382; with Omipalisib + AZD7762 (first compound 0.03 µM) it was 0.328; in the test with Omipalisib + Olaparib (first compound 0.0003 µM), 0.932; with Omipalisib + Olaparib (first compound 0.003 µM), 0.715; in the test with Omipalisib + Olaparib (first compound 0.03 µM), 0.362.
Take LOU-NH91: the relative viability with Omipalisib + Pemetrexed (first compound 0.0003 µM) was 0.408; with Omipalisib + Pemetrexed (first compound 0.003 µM), 0.431; with Omipalisib + Pemetrexed (first compound 0.03 µM), 0.448; in the test with Omipalisib + Navitoclax (first compound 0.0003 µM), 0.635; with Omipalisib + Navitoclax (first compound 0.003 µM) it was 0.585; in the test with Omipalisib + Navitoclax (first compound 0.03 µM) it was 0.346. The relative viability came to 0.706 in the test with Omipalisib + Tozasertib (first compound 0.0003 µM); 0.621 with Omipalisib + Tozasertib (first compound 0.003 µM); 0.441 with Omipalisib + Tozasertib (first compound 0.03 µM); 0.737 in the test with Omipalisib + Crizotinib (first compound 0.0003 µM); 0.65 in the test with Omipalisib + Crizotinib (first compound 0.003 µM); 0.504 in the test with Omipalisib + Crizotinib (first compound 0.03 µM). For the same cell line, the relative viability came to 0.772 with Omipalisib + AZD7762 (first compound 0.0003 µM); 0.566 in the test with Omipalisib + AZD7762 (first compound 0.003 µM); 0.515 with Omipalisib + AZD7762 (first compound 0.03 µM); 0.909 with Omipalisib + Olaparib (first compound 0.0003 µM); 0.852 in the test with Omipalisib + Olaparib (first compound 0.003 µM); 0.617 in the test with Omipalisib + Olaparib (first compound 0.03 µM).
As to NCI-H1944, the relative viability with Omipalisib + Pemetrexed (first compound 0.0003 µM) came out at 0.626; with Omipalisib + Pemetrexed (first compound 0.003 µM), 0.471; in the test with Omipalisib + Pemetrexed (first compound 0.03 µM), 0.324; with Omipalisib + Navitoclax (first compound 0.0003 µM), 0.975; in the test with Omipalisib + Navitoclax (first compound 0.003 µM), 0.775; with Omipalisib + Navitoclax (first compound 0.03 µM), 0.474. Also, the relative viability worked out at 0.237 in the test with Omipalisib + Tozasertib (first compound 0.0003 µM); 0.217 with Omipalisib + Tozasertib (first compound 0.003 µM); 0.192 with Omipalisib + Tozasertib (first compound 0.03 µM); 1 in the test with Omipalisib + Crizotinib (first compound 0.0003 µM); 0.858 with Omipalisib + Crizotinib (first compound 0.003 µM); 0.439 in the test with Omipalisib + Crizotinib (first compound 0.03 µM). Moreover, the relative viability in the test with Omipalisib + AZD7762 (first compound 0.0003 µM) was 0.406; in the test with Omipalisib + AZD7762 (first compound 0.003 µM), 0.345; in the test with Omipalisib + AZD7762 (first compound 0.03 µM) it was 0.262; in the test with Omipalisib + Olaparib (first compound 0.0003 µM) it was 0.334; with Omipalisib + Olaparib (first compound 0.003 µM), 0.349; with Omipalisib + Olaparib (first compound 0.03 µM), 0.203.
Consider NCI-H1993, for which the relative viability with Omipalisib + Pemetrexed (first compound 0.0003 µM) was found to be 0.529; with Omipalisib + Pemetrexed (first compound 0.003 µM) it was 0.478; with Omipalisib + Pemetrexed (first compound 0.03 µM) it was 0.513; with Omipalisib + Navitoclax (first compound 0.0003 µM), 0.722; with Omipalisib + Navitoclax (first compound 0.003 µM), 0.703; in the test with Omipalisib + Navitoclax (first compound 0.03 µM), 0.618. For the same cell line, the relative viability with Omipalisib + Tozasertib (first compound 0.0003 µM) is 0.575; in the test with Omipalisib + Tozasertib (first compound 0.003 µM), 0.5; with Omipalisib + Tozasertib (first compound 0.03 µM), 0.499; with Omipalisib + Crizotinib (first compound 0.0003 µM) it was 0.83; in the test with Omipalisib + Crizotinib (first compound 0.003 µM), 0.618; in the test with Omipalisib + Crizotinib (first compound 0.03 µM), 0.63. The relative viability with Omipalisib + AZD7762 (first compound 0.0003 µM) was 0.45; with Omipalisib + AZD7762 (first compound 0.003 µM), 0.403; in the test with Omipalisib + AZD7762 (first compound 0.03 µM), 0.382; in the test with Omipalisib + Olaparib (first compound 0.0003 µM) it was 1.05; with Omipalisib + Olaparib (first compound 0.003 µM), 0.624; with Omipalisib + Olaparib (first compound 0.03 µM), 0.398.
As to HCC-15, the relative viability was 0.23 with Omipalisib + Pemetrexed (first compound 0.0003 µM); 0.213 in the test with Omipalisib + Pemetrexed (first compound 0.003 µM); 0.209 with Omipalisib + Pemetrexed (first compound 0.03 µM); 0.667 with Omipalisib + Navitoclax (first compound 0.0003 µM); 0.54 with Omipalisib + Navitoclax (first compound 0.003 µM); 0.462 in the test with Omipalisib + Navitoclax (first compound 0.03 µM). The relative viability is 0.373 with Omipalisib + Tozasertib (first compound 0.0003 µM); 0.38 in the test with Omipalisib + Tozasertib (first compound 0.003 µM); 0.237 in the test with Omipalisib + Tozasertib (first compound 0.03 µM); 0.793 with Omipalisib + Crizotinib (first compound 0.0003 µM); 0.734 in the test with Omipalisib + Crizotinib (first compound 0.003 µM); 0.655 in the test with Omipalisib + Crizotinib (first compound 0.03 µM). Moreover, the relative viability with Omipalisib + AZD7762 (first compound 0.0003 µM) was found to be 1.23; in the test with Omipalisib + AZD7762 (first compound 0.003 µM) it was 0.916; with Omipalisib + AZD7762 (first compound 0.03 µM), 0.91; in the test with Omipalisib + Olaparib (first compound 0.0003 µM) it was 0.681; in the test with Omipalisib + Olaparib (first compound 0.003 µM) it was 0.643; in the test with Omipalisib + Olaparib (first compound 0.03 µM), 0.542.
